Data: US20040132817A1, “Use of an histone deacetylase inhibitor for the treatment of diseases associated with an hpv infection” (priority 2001, published 2004)

Key:
Type in all cases: cell-based, human
cyclin-cdk2 complex = assay: Western blot analysis of cdk2 immunoprecipitates from HeLa cells (p21, p27, E7 binding)
Source text: (B-E) Western blot analysis of the cdk2 complex. Cdk2 precipitates were separated in a 12% SDS-PAGE gel and immunoblotted with p21^CIP1 (B), p27^KIP1 (C) and HPV18 E7 specific antibodies.
(B) Cdk2 activity after NaB application. Upper panel: Cdk 2 complexes were immunoprecipitated and assayed for their activity using histone H1 as substrate. Lower panels: Western blot analysis of the cdk 2 complexes which were precipitated, separated in a 12% SDS-PAGE gel and immunoblotted with specific antibodies used in panel A. Loading was verified by incubation with cdk 2 antibodies.
For cell fractionation, cell monolayers were washed twice with PBS and harvested by trypsinisation. Cell extract preparation and cdk2 activity assays were exactly done as described by Blomberg and Hoffmann, Mol. Cell. Biol. 19 (1999), 6183-6194. In addition, cdk2 was immunoprecipitated and analyzed by immunoblotting. Beads used for cdk2 kinase assay were washed 3 times with lysis buffer (Blomberg and Hoffmann, 1999), incubated with Laemmli sample buffer and boiled for 5 min. Supernatant was analyzed by SDS-PAGE gels. Immunoblotting was carried out with the following antibodies: p21^CIP1 (C24420) and p27^KIP1 (K25020; Transduction Laboratories) or HPV18-E7 (N-19; Santa Cruz, Inc.). Cdk2 specific antibodies or preimmune serum were kindly provided by I. Hoffmann (DKFZ, Heidelberg).
Western blot analysis of the cdk2 complex. Cdk2 precipitates were separated in a 12% SDS-PAGE gel and immunoblotted with p21^CIP1, p27^KIP1 and HPV 18 E7 specific antibodies. Equal loading was verified by incubation with cdk2 antibodies. PI: preimmune serum. (Contr.): untreated cells; (DMSO): DMSO control; (TSA): treated with 330 nM trichostatin A for 16 hours.

p21^CIP1 = assay: Western blot of p21^CIP1 in HeLa cells; settings: 16 hours
Procedure: (§1) (A) Westem blot analysis. 50 μg of cellular protein were loaded on SDS-PAGE minigels. After electrotransfer, the filters were incubated with p21^CIP1, p27^KIP1, p16^INK4 and p45^SKP2. Equal protein loading was confirmed by a monoclonal actin antibody.
(§2) Cellular extracts were separated in 8-12% SDS PAGE gels and electrotransferred as described elsewhere (Finzer et al., Oncogene 19 (2000), 3235-3244; Soto et al., Oncogene 18 (1999), 3187-3198). The following antibodies were used: cyclin E (HE 12), cyclin D 1 (HD 11), cdk2 (M2), (D-12; Santa Cruz Biotechnology, Inc., Santa Cruz, USA), cdk4 (C-22), cdk6 (C-21), p27^KIP1 (C-19), (K25020), p45^SKP2 (N-19), HPV18-E7 (N-19) and E2F-1 (KH95) (Santa Cruz Biotechnology, Inc. Santa Cruz, USA), p21^CIP1 (C24420; Transduction Laboratories, Lexington, USA), pRB (NCL-RB; Novocastra, UK), p16^INK4 (15126E, Pharmingen, San Diego, USA) and HPV 16 E7 (ZYMED Lab. Inc., San Francisco, USA). Cyclin A was kindly provided by M. Pagano (Pagano et al., EMBO J. 11 (1992), 961-971). Equal protein transfer and loading was routinely checked by incubating the filters with a monoclonal actin antibody (ICN Biomedicals, Ohio, USA).
(§3) Western blot analysis. 50 μg of cellular protein was loaded on SDS-PAGE minigels. After electrotransfer, the filters were incubated with p21^CIP1, p27^KIP1, p16^INK4 and p45^SKP2. […]

HeLa cells = assay: Quantification of apoptosis, Cell Death Detection ELISA, HeLa cells; settings: 16 hours
Procedure: (D) Quantification of apoptosis using a commercially available “Cell Death Detection ELISA” kit.
The rate of apoptosis was determined with the Cell Death Detection kit (ELISA^PLUS, Roche Diagnostics, Mannheim, Germany) following the instructions of the manufacturer.
Quantification of apoptosis using a commercially available “Cell Death Detection ELISA” kit. The enrichment factor, for untreated control cells arbitrarily set as 1, directly reflects the extent of apoptosis in HeLa cells after treatment with trichostatin A for 16 hours. (Contr.): untreated cells; (DMSO): DMSO control; (TSA): treated with 330 nM trichostatin A for 16 hours.

E2F-1 = assay: Western blot of E2F-1 in HeLa cells; settings: 16 hours
Procedure: (B and C) Western blot analysis. 50 μg of protein were separated in 8% (for pRb) and 12% SDS-PAGE gels. After electrotransfer, the filters were incubated with pRb, E2F-1 (B) and (C) p53 specific antibodies. Equal protein loading was confirmed with a monoclonal actin antibody.
as §2
Western blot analysis: 50 μg of protein was separated in 8% (for pRb) and 12% SDS-PAGE gels. After electrotransfer, the filters were incubated with pRb, E2F-1 (f) and (g) p53 specific antibodies. […]

p45^SKP2 = assay: Western blot of p45^SKP2 in HeLa cells; settings: 16 hours
Procedure: as §1, §2, §3

p27^KIP1 = assay: Western blot of p27^KIP1 in HeLa cells; settings: 16 hours
Procedure: as §1, §2, §3

cyclin E = assay: Western blot of cyclin E in HeLa cells; settings: 16 hours
Procedure: 50 μg of protein were separated on 12% SDS-PAGE minigels. After electrotransfer, the filters were incubated with antibodies against cyclin D1, cyclin E, cyclin A or cdk2, cdk4 or cdk6 specific antibodies. Equal protein loading was confirmed by reincubating the filters with a monoclonal actin antibody.
as §2
50 μg of protein was separated on 12% SDS-PAGE minigels. […]

[1] = 330 nM trichostatin A, 16 hours
[2] = 330 nM trichostatin A, listed as Trichostatin A

SMILES	E7 binding to the cdk2 complex (cyclin-cdk2 complex; [1])	interaction of p21^CIP1 and p27^KIP1 with cdk2 (cyclin-cdk2 complex; [1])	p21^CIP1 protein level (p21^CIP1; 330 nM trichostatin A)	apoptosis (release of histone-associated DNA fragments) (HeLa cells; 330 nM trichostatin A)	apoptosis (release of histone-associated DNA fragments) (HeLa cells; [2])	E2F-1 level (E2F-1; 330 nM trichostatin A)	p45^SKP2 protein level (p45^SKP2; [2])	p27^KIP1 protein level (p27^KIP1; 330 nM trichostatin A)	cyclin E protein level (cyclin E; 330 nM trichostatin A)	E7 in the cdk2 complex (cyclin-cdk2 complex; 6 mM sodium butyrate, 16 hours)	association of p21^CIP1 and p27^KIP1 with the cdk2 complex (cyclin-cdk2 complex; 6 mM sodium butyrate, 16 hours)	E7 bound to cyclin-cdk2 complexes, time course (cyclin-cdk2 complex; NaB time course)	association of p21^CIP1 and p27^KIP1 with the cdk2 complex, time course (cyclin-cdk2 complex; NaB time course)	p21^CIP1 protein level (p21^CIP1; 6 mM sodium butyrate)	apoptosis (release of histone-associated DNA fragments) (HeLa cells; sodium butyrate)	E2F-1 level (E2F-1; 6 mM sodium butyrate)	p45^SKP2 protein level (p45^SKP2; 6 mM sodium butyrate)	p27^KIP1 protein level (p27^KIP1; 6 mM sodium butyrate)	cyclin E protein level (cyclin E; 6 mM sodium butyrate)
CC(/C=C/C(=O)NO)=C\[C@@H](C)C(=O)c1ccc(N(C)C)cc1 [trichostatin A]	Loss of E7 Binding	Enhanced Interaction	Induces	much stronger	Induction of Apoptosis	without Affecting	Suppresses	Upregulates	Upregulates										
CCCC(=O)[O-].[Na+] [sodium butyrate]										completely disappeared	both CK1s became associated with the cdk2 complex	completely disappeared between 12-16 hours	threshold amounts of both CKIs became associated with the cdk2 complex (between 12-16 hours)	significantly induced	induce programmed cell death to a significant extent	no consequences on gene expression and translation	strongly suppressed	significantly induced	strongly increased
